For assay [1], the target named is T1, Vitamin D3 receptor (Rattus norvegicus) (UniProt P13053).
T1 sequence (whole entry): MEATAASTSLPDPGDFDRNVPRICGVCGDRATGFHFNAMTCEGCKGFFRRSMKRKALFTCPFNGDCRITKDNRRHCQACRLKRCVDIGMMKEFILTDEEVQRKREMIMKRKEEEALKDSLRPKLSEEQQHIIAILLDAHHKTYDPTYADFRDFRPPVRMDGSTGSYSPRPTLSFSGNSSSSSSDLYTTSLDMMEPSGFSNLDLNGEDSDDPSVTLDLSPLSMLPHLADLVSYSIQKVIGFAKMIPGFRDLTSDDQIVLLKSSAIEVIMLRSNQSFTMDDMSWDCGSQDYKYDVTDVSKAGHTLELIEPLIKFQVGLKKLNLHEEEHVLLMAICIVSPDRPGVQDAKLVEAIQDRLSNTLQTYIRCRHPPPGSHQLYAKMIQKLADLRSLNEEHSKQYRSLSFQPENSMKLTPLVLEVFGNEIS
Description: Potency index, ratio of Ki for 1-alpha,25-(OH)2D3 to Ki for test compound for displacement of [3H]1-alpha,25-(OH)2D3 from rat recombinant full length VDR.

Assay [2] deals with Rattus norvegicus. Description: Induction of intestinal calcium transport in vitamin D-deficient Sprague-Dawley rat assessed as ratio of serosal to mucosal calcium level at 87 pmol, ip administered as 4 consecutive daily doses measured after 24 hrs post last dose by gut sac assay relative to 1alpha,25-(OH)2D3. The class given is functional, organism-based.
Assay [3] deals with T1, Vitamin D3 receptor (Rattus norvegicus). Description: Potency index, ratio of ED50 for 1-alpha,25-(OH)2D3 to ED50 for test compound for agonist activity at rat recombinant full length VDR expressed in rat ROS 17/2.8 cells transfected with 24-hydroxylase gene promoter assessed as transcriptional activation after 16 hrs by luciferase reporter gene assay. The class given is cell-based. For orientation: In a reporter assay the amount or activity of a reporter protein is the signal.

Assay [4] has as its system Rattus norvegicus. Description: Induction of bone calcium mobilization in vitamin D-deficient Sprague-Dawley rat assessed as serum calcium level at 87 pmol, ip administered as 4 consecutive daily doses measured after 24 hrs post last dose by spectrometry relative to 1alpha,25-(OH)2D3. The class given is functional, organism-based.
The target in assay [5] is T2, Vitamin D3 receptor (Homo sapiens) (UniProt P11473).
T2 sequence (whole entry): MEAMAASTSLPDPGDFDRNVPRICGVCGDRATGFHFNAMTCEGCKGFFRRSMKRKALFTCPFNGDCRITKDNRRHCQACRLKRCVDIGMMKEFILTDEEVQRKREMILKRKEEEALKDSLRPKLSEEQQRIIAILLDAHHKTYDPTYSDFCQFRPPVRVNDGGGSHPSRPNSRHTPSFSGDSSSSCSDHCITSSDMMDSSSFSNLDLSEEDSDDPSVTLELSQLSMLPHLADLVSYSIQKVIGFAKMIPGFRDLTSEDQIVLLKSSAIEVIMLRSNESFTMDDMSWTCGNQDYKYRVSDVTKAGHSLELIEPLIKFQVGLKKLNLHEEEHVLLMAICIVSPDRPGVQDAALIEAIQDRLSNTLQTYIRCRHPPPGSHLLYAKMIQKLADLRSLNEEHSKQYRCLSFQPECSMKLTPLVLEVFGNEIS
In words: Potency index, ratio of ED50 for 1-alpha,25-(OH)2D3 to ED50 for test compound for agonist activity at VDR in human HL60 cells assessed as induction of cell differentiation of promyelocytes to monocytes after 4 days by NBT reduction assay. The class given is cell-based. The conditions noted are these: HL-60.

The subject of assay [6] is Rattus norvegicus. Description: Induction of intestinal calcium transport in vitamin D-deficient Sprague-Dawley rat assessed as ratio of serosal to mucosal calcium level at 780 pmol, ip administered as 4 consecutive daily doses measured after 24 hrs post last dose by gut sac assay relative to 1alpha,25-(OH)2D3. The class given is functional, organism-based.
Assay [7] concerns Rattus norvegicus. In words: Induction of bone calcium mobilization in vitamin D-deficient Sprague-Dawley rat assessed as serum calcium level at 780 pmol, ip administered as 4 consecutive daily doses measured after 24 hrs post last dose by spectrometry relative to 1alpha,25-(OH)2D3. The class given is functional, organism-based.

Molecules are shown by their SMILES. Activity calls are given as the source filed them. The calls are words filed in the database; no cut-off is given here.

In the case of `C=C1[C@H](O)CC(=C/C=C2\CCC[C@]3(C)[C@@H]([C@@H](C)C(=C)CCCC(O)(CC)CC)CC[C@@H]23)C[C@H]1O`, the Ratio Ki in assay [1] turned out to be 0.5. Moreover, the outcome with Rattus norvegicus [2], in the assay on Rattus norvegicus [4], in the assay on Rattus norvegicus [6] and with Rattus norvegicus [7] was Active. In addition, the Ratio ED50 was determined as 6.7 in assay [3] and 50 in assay [5].
For the compound `C=C1[C@H](O)CC(=C/C=C2\CCC[C@]3(C)[C@@H]([C@@H](C)C(=C)CCC4(O)CCCC4)CC[C@@H]23)C[C@H]1O`, the Ratio Ki in assay [1] was 1. The outcome in the assay on Rattus norvegicus [2], in the assay with Rattus norvegicus [4], in the assay on Rattus norvegicus [6] and in the assay on Rattus norvegicus [7] was Active. The Ratio ED50 came out at 20 in assay [3] and 29 in assay [5].
On to `C=C1[C@H](O)CC(=C/C=C2\CCC[C@]3(C)[C@@H]([C@@H](C)C(=C)CCCC(C)(C)O)CC[C@@H]23)C[C@H]1O`, for which, in assay [1], the Ratio Ki was found to be 1. The outcome in the assay on Rattus norvegicus [2], in the assay with Rattus norvegicus [4], in the assay on Rattus norvegicus [6] and with Rattus norvegicus [7] was Active. In addition, the Ratio ED50 in assay [3] was found to be 20; in assay [5], 50.
Take `C=C1[C@H](O)CC(=C/C=C2\CCC[C@]3(C)[C@@H]([C@@H](C)C(=C)CCC(C)(C)O)CC[C@@H]23)C[C@H]1O`: the Ratio Ki in assay [1] stood at 0.5. For the same compound, the outcome in the assay with Rattus norvegicus [2], in the assay with Rattus norvegicus [4], with Rattus norvegicus [6] and in the assay on Rattus norvegicus [7] was Active. The Ratio ED50 was found to be 2.5 in assay [3] and 4 in assay [5].
In the case of `C=C1[C@H](O)CC(=C/C=C2\CCC[C@]3(C)[C@@H]([C@@H](C)C(=C)CCC(O)(CC)CC)CC[C@@H]23)C[C@H]1O`, in assay [1], the Ratio Ki turned out to be 1. Moreover, the outcome in the assay on Rattus norvegicus [2], in the assay on Rattus norvegicus [4], in the assay with Rattus norvegicus [6] and in the assay with Rattus norvegicus [7] was Active. Moreover, the Ratio ED50 in assay [3] is 6.7; in assay [5], 10.
Regarding `C=C1[C@H](O)CC(=C/C=C2\CCC[C@]3(C)[C@@H]([C@@H](C)CCCC(C)(C)O)CC[C@@H]23)C[C@H]1O`, the Ratio Ki in assay [1] was 1. In addition, the results for the Ratio ED50 in assay [3] and in assay [5] were 29 and 25, respectively.
Take `C=C1[C@H](O)CC(=C/C=C2\CCC[C@]3(C)[C@@H]([C@@H](C)C(=C)CCC(C)C)CC[C@@H]23)C[C@H]1O`: the Ratio Ki in assay [1] came to 0.01. The outcome with Rattus norvegicus [2], in the assay with Rattus norvegicus [4], in the assay with Rattus norvegicus [6] and in the assay with Rattus norvegicus [7] was Active. Further, the Ratio ED50 in assay [3] stood at 0.05; in assay [5] it was 0.1.

Source of the values: ChEMBL document CHEMBL4616676, “Synthesis and Biological Activity of 2,22-Dimethylene Analogues of 19-Norcalcitriol and Related Compounds” (J Med Chem, 2020).
